Assay results as given in PMC5218480 (PLoS ONE, 2017).

System: MV-4-11 cells
Assay: Gene expression microarray analysis (Affymetrix PrimeView) and GSEA
Assay type: cell-based, human
Set-up: RFU PODN (11730768_x_at) / Fold change /veh PODN (11730768_x_at) / RFU LINC00158 (11744669_a_at) / Fold change /veh LINC00158 (11744669_a_at) / RFU DUSP10 (11751237_a_at) / Fold change /veh DUSP10 (11751237_a_at) / RFU ID3 (11757404_x_at) / Fold change /veh ID3 (11757404_x_at) / RFU PLEKHG5 (11737974_s_at) / Fold change /veh PLEKHG5 (11737974_s_at) / RFU LRRC4B (11730491_at) / Fold change /veh LRRC4B (11730491_at) / RFU GIMAP4 (11747438_a_at) / Fold change /veh GIMAP4 (11747438_a_at) / RFU KRT8 (11758183_x_at) / Fold change /veh KRT8 (11758183_x_at) / RFU CNN1 (11734310_a_at) / Fold change /veh CNN1 (11734310_a_at) / RFU VPS37D (11726825_at) / Fold change /veh VPS37D (11726825_at) / RFU C10orf10 (11716522_x_at) / Fold change /veh C10orf10 (11716522_x_at) / RFU KIR2DL2 /// KIR2DL4 /// KIR2DL5A /// KIR2DL5B /// KIR2DS1 /// KIR2DS2 /// KIR2DS3 /// KIR2DS4 /// KIR3DL3 /// KIR3DL3 /// KIR3DS1 (11738374_at) / Fold change /veh KIR2DL2 /// KIR2DL4 /// KIR2DL5A /// KIR2DL5B /// KIR2DS1 /// KIR2DS2 /// KIR2DS3 /// KIR2DS4 /// KIR3DL3 /// KIR3DL3 /// KIR3DS1 (11738374_at) / RFU C1QL1 (11718748_at) / Fold change /veh C1QL1 (11718748_at) / RFU TMPRSS4 (11747572_a_at) / Fold change /veh TMPRSS4 (11747572_a_at) / RFU HAMP (11756126_x_at) / Fold change /veh HAMP (11756126_x_at) / RFU RNFT2 (11725882_a_at) / Fold change /veh RNFT2 (11725882_a_at) / RFU NR4A2 (11747474_a_at) / Fold change /veh NR4A2 (11747474_a_at) / RFU ABCC12 (11746883_a_at) / Fold change /veh ABCC12 (11746883_a_at) / RFU TMEM136 (11760407_x_at) / Fold change /veh TMEM136 (11760407_x_at) / RFU CLDN22 /// WWC2 (11732394_at) / Fold change /veh CLDN22 /// WWC2 (11732394_at) / RFU HLA-DPB1 (11760878_x_at) / Fold change /veh HLA-DPB1 (11760878_x_at) / RFU SPINT1 (11716480_a_at) / Fold change /veh SPINT1 (11716480_a_at) / RFU GAP43 (11754022_s_at) / Fold change /veh GAP43 (11754022_s_at) / RFU A4GNT (11735810_at) / Fold change /veh A4GNT (11735810_at) / RFU PRB3 (11715151_x_at) / Fold change /veh PRB3 (11715151_x_at) / RFU TUBB4B (11761932_at) / Fold change /veh TUBB4B (11761932_at) / RFU CAPN14 (11732068_a_at) / Fold change /veh CAPN14 (11732068_a_at) / RFU TMCC2 (11721928_a_at) / Fold change /veh TMCC2 (11721928_a_at) / RFU IRGQ (11745062_a_at) / Fold change /veh IRGQ (11745062_a_at) / RFU FAM174B (11720279_a_at) / Fold change /veh FAM174B (11720279_a_at) / RFU TMPRSS4 (11748680_a_at) / Fold change /veh TMPRSS4 (11748680_a_at) / RFU FAM212B (11763350_a_at) / Fold change /veh FAM212B (11763350_a_at) / RFU PLEKHG5 (11743358_a_at) / Fold change /veh PLEKHG5 (11743358_a_at) / RFU ZSCAN30 (11745921_a_at) / Fold change /veh ZSCAN30 (11745921_a_at) / RFU CMKLR1 (11741424_a_at) / Fold change /veh CMKLR1 (11741424_a_at) / RFU LOC101060620 /// MAPK8IP1 (11723275_at) / Fold change /veh LOC101060620 /// MAPK8IP1 (11723275_at) / RFU SPTSSB (11747773_x_at) / Fold change /veh SPTSSB (11747773_x_at) / RFU PRSS12 (11739890_at) / Fold change /veh PRSS12 (11739890_at) / RFU BIN1 (11741810_x_at) / Fold change /veh BIN1 (11741810_x_at) / RFU WNT11 (11732464_a_at) / Fold change /veh WNT11 (11732464_a_at) / RFU C10orf10 (11716521_a_at) / Fold change /veh C10orf10 (11716521_a_at) / RFU C5orf56 (11738089_at) / Fold change /veh C5orf56 (11738089_at) / RFU CYB561 (11721691_x_at) / Fold change /veh CYB561 (11721691_x_at) / RFU ANKRD19P (11752326_a_at) / Fold change /veh ANKRD19P (11752326_a_at) / RFU OR2T12 /// OR2T33 /// OR2T8 (11738714_s_at) / Fold change /veh OR2T12 /// OR2T33 /// OR2T8 (11738714_s_at) / RFU VCAN (11748164_a_at) / Fold change /veh VCAN (11748164_a_at) / RFU JSRP1 (11732532_at) / Fold change /veh JSRP1 (11732532_at) / RFU KRTAP10-11 (11738290_x_at) / Fold change /veh KRTAP10-11 (11738290_x_at) / RFU MYO3A (11730013_a_at) / Fold change /veh MYO3A (11730013_a_at) / RFU EBF3 (11725865_a_at) / Fold change /veh EBF3 (11725865_a_at) / RFU CAMK2N1 (11719241_x_at) / Fold change /veh CAMK2N1 (11719241_x_at) / RFU C5orf56 (11738088_a_at) / Fold change /veh C5orf56 (11738088_a_at) / RFU OLFML3 (11715873_a_at) / Fold change /veh OLFML3 (11715873_a_at) / RFU LOC100653217 /// NTM (11731650_a_at) / Fold change /veh LOC100653217 /// NTM (11731650_a_at) / RFU MAPK11 (11762145_a_at) / Fold change /veh MAPK11 (11762145_a_at) / RFU FIZ1 (11724087_x_at) / Fold change /veh FIZ1 (11724087_x_at) / RFU OASL (11726364_x_at) / Fold change /veh OASL (11726364_x_at) / RFU SOX15 (11748057_x_at) / Fold change /veh SOX15 (11748057_x_at) / RFU CD79A (11719716_a_at) / Fold change /veh CD79A (11719716_a_at) / RFU HIST1H1D (11736915_at) / Fold change /veh HIST1H1D (11736915_at) / RFU CASKIN2 (11723855_a_at) / Fold change /veh CASKIN2 (11723855_a_at) / RFU LOC730098 (11760151_x_at) / Fold change /veh LOC730098 (11760151_x_at) / RFU OR4N2 (11742367_at) / Fold change /veh OR4N2 (11742367_at) / RFU PRRT2 (11749266_a_at) / Fold change /veh PRRT2 (11749266_a_at) / RFU SNX32 (11753110_a_at) / Fold change /veh SNX32 (11753110_a_at) / RFU CDHR5 (11726645_a_at) / Fold change /veh CDHR5 (11726645_a_at) / RFU RCAN1 (11760418_a_at) / Fold change /veh RCAN1 (11760418_a_at) / RFU FAM167A (11723789_a_at) / Fold change /veh FAM167A (11723789_a_at) / RFU FAM26E (11764081_at) / Fold change /veh FAM26E (11764081_at) / RFU ISYNA1 (11749810_s_at) / Fold change /veh ISYNA1 (11749810_s_at) / RFU ACY1 (11761880_at) / Fold change /veh ACY1 (11761880_at) / RFU 11764098_at / Fold change /veh 11764098_at / RFU SAMD14 (11745864_x_at) / Fold change /veh SAMD14 (11745864_x_at) / RFU NPB (11741838_a_at) / Fold change /veh NPB (11741838_a_at) / RFU TMPRSS6 (11731388_a_at) / Fold change /veh TMPRSS6 (11731388_a_at) / RFU KRTAP10-2 (11738614_at) / Fold change /veh KRTAP10-2 (11738614_at) / RFU ARHGAP8 /// PRR5-ARHGAP8 (11727945_x_at) / Fold change /veh ARHGAP8 /// PRR5-ARHGAP8 (11727945_x_at) / RFU KRTAP5-7 /// NADSYN1 (11734609_at) / Fold change /veh KRTAP5-7 /// NADSYN1 (11734609_at) / RFU RASL12 (11751679_a_at) / Fold change /veh RASL12 (11751679_a_at) / RFU CDKN2B (11736163_a_at) / Fold change /veh CDKN2B (11736163_a_at) / RFU PRF1 (11729649_at) / Fold change /veh PRF1 (11729649_at) / RFU, ZNF638 /// ZNF638-IT1 / Fold change vs veh, ZNF638 /// ZNF638-IT1 / RFU, PANK3 / Fold change vs veh, PANK3 / RFU, SH3YL1 / Fold change vs veh, SH3YL1 / RFU, ZEB2 / Fold change vs veh, ZEB2 / RFU, NRIP1 / Fold change vs veh, NRIP1 / RFU, PTTG1IP / Fold change vs veh, PTTG1IP / RFU, CAPN2 / Fold change vs veh, CAPN2 / RFU, MED14 / Fold change vs veh, MED14 / RFU, SNORA58 / Fold change vs veh, SNORA58 / RFU, C1orf63 / Fold change vs veh, C1orf63 / RFU, LRRFIP1 / Fold change vs veh, LRRFIP1 / RFU, NDUFAF7 / Fold change vs veh, NDUFAF7 / RFU, SLC12A2 / Fold change vs veh, SLC12A2 / RFU, IBTK / Fold change vs veh, IBTK / RFU, ESF1 / Fold change vs veh, ESF1 / Fold change vs veh, TMEM50B / RFU, TAOK1 / Fold change vs veh, TAOK1 / RFU, ACBD3 / Fold change vs veh, ACBD3 / RFU, TMA16 / Fold change vs veh, TMA16 / RFU, RWDD3 / Fold change vs veh, RWDD3 / RFU, BCAT1 / Fold change vs veh, BCAT1 / RFU, EDEM3 / Fold change vs veh, EDEM3 / RFU, TMEM33 / Fold change vs veh, TMEM33 / RFU, WDR75 / Fold change vs veh, WDR75 / RFU, AHCTF1 / Fold change vs veh, AHCTF1 / RFU, TFRC / Fold change vs veh, TFRC / RFU, ZDHHC17 / Fold change vs veh, ZDHHC17 / RFU, NOM1 / Fold change vs veh, NOM1 / RFU, ARL8B / Fold change vs veh, ARL8B / RFU, ZBTB11 / Fold change vs veh, ZBTB11 / RFU, TAMM41 / Fold change vs veh, TAMM41 / RFU, KIAA1704 /// LOC100996395 / Fold change vs veh, KIAA1704 /// LOC100996395 / RFU, ING1 / Fold change vs veh, ING1 / RFU, TRMT61B / Fold change vs veh, TRMT61B / RFU, FUBP3 / Fold change vs veh, FUBP3 / RFU, TP53 / Fold change vs veh, TP53 / RFU, TNKS2 / Fold change vs veh, TNKS2 / RFU, ZFP14 / Fold change vs veh, ZFP14 / RFU, ACTR2 / Fold change vs veh, ACTR2 / RFU, PPP3R1 / Fold change vs veh, PPP3R1 / RFU, PIK3R1 / Fold change vs veh, PIK3R1 / RFU, HNRNPA1 / Fold change vs veh, HNRNPA1 / RFU, RNF170 / Fold change vs veh, RNF170 / RFU, ZNF28 / Fold change vs veh, ZNF28 / RFU, RNGTT / Fold change vs veh, RNGTT / RFU, OGT / Fold change vs veh, OGT / RFU, BRD1 / Fold change vs veh, BRD1 / RFU, MARS / Fold change vs veh, MARS / RFU, ZNF655 / Fold change vs veh, ZNF655 / RFU, FAHD1 / Fold change vs veh, FAHD1 / RFU, BDP1 / Fold change vs veh, BDP1 / RFU, LRRCC1 / Fold change vs veh, LRRCC1 / RFU, ARID1A / Fold change vs veh, ARID1A / RFU, ZNF146 / Fold change vs veh, ZNF146 / RFU, ZNF330 / Fold change vs veh, ZNF330 / RFU, GPN3 / Fold change vs veh, GPN3 / RFU, C9orf123 / Fold change vs veh, C9orf123 / RFU, N4BP2L2 / Fold change vs veh, N4BP2L2 / RFU, ARFIP1 / Fold change vs veh, ARFIP1 / RFU, FAM179B / Fold change vs veh, FAM179B / RFU, BCL10 / Fold change vs veh, BCL10 / RFU, UHRF1BP1L / Fold change vs veh, UHRF1BP1L / RFU, BET1 / Fold change vs veh, BET1 / RFU, CNOT2 / Fold change vs veh, CNOT2 / RFU, ZNF268 / Fold change vs veh, ZNF268 / Fold change vs veh, ZNF507 / RFU, DGCR2 / Fold change vs veh, DGCR2 / RFU, WDSUB1 / Fold change vs veh, WDSUB1 / Fold change vs veh, HSP90B1 /// MIR3652 / RFU, ADSS / Fold change vs veh, ADSS / RFU, GK / Fold change vs veh, GK / RFU, ZNF148 / Fold change vs veh, ZNF148 / RFU, TAF9 / Fold change vs veh, TAF9 / RFU, SLC1A5 / Fold change vs veh, SLC1A5 / RFU, SLMO2 / Fold change vs veh, SLMO2 / RFU, ABCC4 / Fold change vs veh, ABCC4 / RFU, LOC101060439 /// RAP1B / Fold change vs veh, LOC101060439 /// RAP1B / RFU, RFX7 / Fold change vs veh, RFX7 / RFU, GTPBP10 / Fold change vs veh, GTPBP10 / RFU, CNEP1R1 / Fold change vs veh, CNEP1R1 / RFU, BIVM-ERCC5 /// ERCC5 / Fold change vs veh, BIVM-ERCC5 /// ERCC5 / RFU, ILF3 / Fold change vs veh, ILF3 / RFU 11762660_at / Fold change /veh 11762660_at / RFU VCAN (11757783_s_at) / Fold change /veh VCAN (11757783_s_at) / RFU DDX43 (11728927_at) / Fold change /veh DDX43 (11728927_at) / RFU KRT8 (11758188_x_at) / Fold change /veh KRT8 (11758188_x_at) / RFU NKD1 (11759106_at) / Fold change /veh NKD1 (11759106_at) / RFU SRD5A1 (11742802_a_at) / Fold change /veh SRD5A1 (11742802_a_at) / RFU TPSAB1 /// TPSB2 (11721975_s_at) / Fold change /veh TPSAB1 /// TPSB2 (11721975_s_at) / RFU GSTM3 (11746129_a_at) / Fold change /veh GSTM3 (11746129_a_at) / RFU IL23R (11737362_x_at) / Fold change /veh IL23R (11737362_x_at) / RFU TMEM51 (11727254_a_at) / Fold change /veh TMEM51 (11727254_a_at) / RFU PIWIL2 (11732686_x_at) / Fold change /veh PIWIL2 (11732686_x_at) / RFU ORM1 (11744905_x_at) / Fold change /veh ORM1 (11744905_x_at) / RFU CCDC152 (11743942_at) / Fold change /veh CCDC152 (11743942_at) / RFU ECM1 (11717891_a_at) / Fold change /veh ECM1 (11717891_a_at) / RFU IL23R (11748794_a_at) / Fold change /veh IL23R (11748794_a_at) / RFU TNFAIP8L3 (11732012_x_at) / Fold change /veh TNFAIP8L3 (11732012_x_at) / RFU MBOAT4 (11741988_at) / Fold change /veh MBOAT4 (11741988_at) / RFU 11764193_at / Fold change /veh 11764193_at / RFU TMEM53 (11763286_at) / Fold change /veh TMEM53 (11763286_at) / RFU MAGEB2 (11727129_at) / Fold change /veh MAGEB2 (11727129_at) / RFU TMEM200A (11744735_a_at) / Fold change /veh TMEM200A (11744735_a_at) / RFU CCDC152 (11751479_a_at) / Fold change /veh CCDC152 (11751479_a_at) / RFU FAM211A (11726209_a_at) / Fold change /veh FAM211A (11726209_a_at) / RFU RGS16 (11746705_a_at) / Fold change /veh RGS16 (11746705_a_at) / RFU VCAN (11755009_s_at) / Fold change /veh VCAN (11755009_s_at) / RFU RHOB (11743442_s_at) / Fold change /veh RHOB (11743442_s_at) / RFU RGS16 (11720943_a_at) / Fold change /veh RGS16 (11720943_a_at) / RFU RGS16 (11720944_at) / Fold change /veh RGS16 (11720944_at) / RFU, VPS4B / Fold change vs veh, VPS4B / RFU, CREB1 / Fold change vs veh, CREB1 / RFU, DNAJC13 / Fold change vs veh, DNAJC13 / RFU, GNAQ / Fold change vs veh, GNAQ / RFU, CDK5R1 / Fold change vs veh, CDK5R1 / RFU, ZRANB3 / Fold change vs veh, ZRANB3 / RFU, CUL4A / Fold change vs veh, CUL4A / RFU, CCNY / Fold change vs veh, CCNY / RFU, UFL1 / Fold change vs veh, UFL1 / RFU, COG3 / Fold change vs veh, COG3 / RFU, DIAPH2 / Fold change vs veh, DIAPH2 / RFU, SKA2 / Fold change vs veh, SKA2 / RFU, AFF3 / Fold change vs veh, AFF3 / RFU, LMF1 / Fold change vs veh, LMF1 / RFU, IPO11 / Fold change vs veh, IPO11 / RFU, DFFB / Fold change vs veh, DFFB / RFU, FOXP1 / Fold change vs veh, FOXP1 / RFU, CARD8 / Fold change vs veh, CARD8 / RFU, STRN3 / Fold change vs veh, STRN3 / RFU, ADK / Fold change vs veh, ADK / RFU, RASSF2 / Fold change vs veh, RASSF2 / RFU, WIPF1 / Fold change vs veh, WIPF1 / RFU, LARP1B / Fold change vs veh, LARP1B / RFU, RASA1 / Fold change vs veh, RASA1 / RFU, RB1 / Fold change vs veh, RB1 / RFU, PPFIA1 / Fold change vs veh, PPFIA1 / RFU, MAT2A / Fold change vs veh, MAT2A / RFU, CCT5 / Fold change vs veh, CCT5 / RFU, WDR92 / Fold change vs veh, WDR92 / RFU, CUX1 / Fold change vs veh, CUX1 / RFU, TTC7A / Fold change vs veh, TTC7A / RFU, TMEM135 / Fold change vs veh, TMEM135 / RFU, DEPTOR / Fold change vs veh, DEPTOR / RFU, CPM / Fold change vs veh, CPM / RFU, DNAJB6 / Fold change vs veh, DNAJB6 / RFU, CACNA2D3 / Fold change vs veh, CACNA2D3 / RFU, DTX4 / Fold change vs veh, DTX4 / RFU, TFCP2 / Fold change vs veh, TFCP2 / RFU, GMCL1 /// GMCL1P1 / Fold change vs veh, GMCL1 /// GMCL1P1 / RFU, AEBP2 / Fold change vs veh, AEBP2 / RFU, SNHG1 /// SNORD22 /// SNORD25 /// SNORD26 /// SNORD27 /// SNORD28 /// SNORD29 /// SNORD31 / Fold change vs veh, SNHG1 /// SNORD22 /// SNORD25 /// SNORD26 /// SNORD27 /// SNORD28 /// SNORD29 /// SNORD31 / Fold change (Aza/veh), C12orf56 (ProbeSet 11735607_a_at) / Fold change (ACY-1035/veh), C12orf56 (ProbeSet 11735607_a_at) / Fold change (Aza/veh), FGFR1OP (ProbeSet 11751329_s_at) / Fold change (ACY-1035/veh), FGFR1OP (ProbeSet 11751329_s_at) / Fold change (Aza/veh), VPS36 (ProbeSet 11739960_a_at) / Fold change (ACY-1035/veh), VPS36 (ProbeSet 11739960_a_at) / RFU SYPL1 (11715823_x_at) / Fold change /veh SYPL1 (11715823_x_at) / RFU IGFBP7 (11715501_s_at) / Fold change /veh IGFBP7 (11715501_s_at) / RFU REEP3 (11722064_at) / Fold change /veh REEP3 (11722064_at) / RFU IGLL1 (11728026_x_at) / Fold change /veh IGLL1 (11728026_x_at): dose or concentration left out as unconfirmed
Conditions: ProbeSet 11757113_a_at; LIST D

With `Nc1ncn([C@@H]2O[C@H](CO)[C@@H](O)[C@H]2O)c(=O)n1` [azacitidine] the “Fold change vs veh, SNHG1 /// SNORD22 /// SNORD25 /// SNORD26 /// SNORD27 /// SNORD28 /// SNORD29 /// SNORD31” value was 0.81.
